A word on the IC50: it is the midpoint of a concentration-inhibition curve. Low readings indicate higher potency, high ones lower potency.

SMILES strings stand for the structures.

The target of this experiment is T1, GST-tagged GDP-loaded KRAS G12V (amino acids 1-169) (Homo sapiens, UniProt P01116, G12V).
T1 construct: GST-tagged GDP-loaded KRAS G12V (amino acids 1-169); made in house; host or cells: E. coli
T1 sequence (P01116 1-169 isoform P01116-2 G12V): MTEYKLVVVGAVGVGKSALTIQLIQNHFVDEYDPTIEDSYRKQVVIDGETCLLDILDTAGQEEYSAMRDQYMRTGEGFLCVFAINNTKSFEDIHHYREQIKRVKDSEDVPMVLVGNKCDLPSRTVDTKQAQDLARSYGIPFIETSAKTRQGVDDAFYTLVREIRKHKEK
Nature of the experiment: KRAS G12V probe displacement assay (TR-FRET). The settings on record: displacement of biotinylated probe 2 from GDP-loaded KRAS G12V. The experiment is classed as binding. The procedure, abridged:
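GST-tagged GDP-loaded KRAS 1-169 (WT 3 nM; G12V 2 nM final) preincubated 1 h at 24 °C with serially diluted compound in HEPES pH 7.5 buffer, then biotinylated probe added (probe 1 60 nM for WT; probe 2 2.5 nM for G12V), 1 h. Anti-GST-Tb/streptavidin-XL665 TR-FRET 665/620 ratio; IC50 by four-parameter fit.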
In general terms: TR-FRET usually uses a lanthanide donor and a delayed reading to cut background.
As to `N#CCC1CN(c2nc(OC[C@@]34CCCN3C[C@H](F)C4)nc3c(F)c(-c4ccc(F)c5sc(N)nc45)c(C(F)(F)F)cc23)C1` [Example 40, 2-(1-(7-(2-amino-7-fluorobenzo[d]thiazol-4-yl)-8-fluoro-2-(((2R,7aS)-2-fluorotetrahydro-1H-pyrrolizin-7a(5H)-yl)methoxy)-6-(trifluoromethyl)quinazolin-4-yl)azetidin-3-yl)acetonitrile], the IC50 worked out at 12 nM.

As to `CC1CN(c2nc(OC[C@@]34CCCN3C[C@H](F)C4)nc3c(F)c(-c4cc(N)cc(Cl)c4C(F)(F)F)ncc23)CCO1` (stereo partly drawn) [Example 119, 3-chloro-5-(8-fluoro-2-(((2R,7aS)-2-fluorotetrahydro-1H-pyrrolizin-7a(5H)-yl)methoxy)-4-(2-methylmorpholino)pyrido[4,3-d]pyrimidin-7-yl)-4-(trifluoromethyl)aniline], the IC50 is 24 nM.

For `Nc1nc2c(-c3c(C(F)(F)F)cc4c(N5CCCCCC5)nc(OC[C@@]56CCCN5C[C@H](F)C6)nc4c3F)ccc(F)c2s1` [Example 81, 4-(4-(azepan-1-yl)-8-fluoro-2-(((2R,7aS)-2-fluorotetrahydro-1H-pyrrolizin-7a(5H)-yl)methoxy)-6-(trifluoromethyl)quinazolin-7-yl)-7-fluorobenzo[d]thiazol-2-amine], the IC50 worked out at 4.9 nM.

Regarding `CC1(O)CN(c2nc(OC[C@@]34CCCN3C[C@H](F)C4)nc3c(F)c(-c4ccc(F)c5sc(N)nc45)c(C(F)(F)F)cc23)C1` [Example 46, 1-(7-(2-amino-7-fluorobenzo[d]thiazol-4-yl)-8-fluoro-2-(((2R,7aS)-2-fluorotetrahydro-1H-pyrrolizin-7a(5H)-yl)methoxy)-6-(trifluoromethyl)quinazolin-4-yl)-3-methylazetidin-3-ol], the IC50 was determined as 7.1 nM. The IC50 values of the last two compounds are within 1.5-fold of each other.

In the case of `Nc1nc2c(-c3c(C(F)(F)F)cc4c(NC56CC(C5)C6)nc(OC[C@@]56CCCN5C[C@H](F)C6)nc4c3F)ccc(F)c2s1` [Example 24, 4-(4-(bicyclo [1.1.1]pentan-1-ylamino)-8-fluoro-2-(((2R,7aS)-2-fluorotetrahydro-1H-pyrrolizin-7a(5H)-yl)methoxy)-6-(trifluoromethyl)quinazolin-7-yl)-7-fluorobenzo[d]thiazol-2-amine], the IC50 turned out to be 24 nM.

For `N#C[C@@H]1CCCN(c2nc(OC[C@@]34CCCN3C[C@H](F)C4)nc3c(F)c(-c4ccc(F)c5sc(N)nc45)c(C(F)(F)F)cc23)C1` [Example 76, (3R)-1-(7-(2-amino-7-fluorobenzo[d]thiazol-4-yl)-8-fluoro-2-(((2R,7aS)-2-fluorotetrahydro-1H-pyrrolizin-7a(5H)-yl)methoxy)-6-(trifluoromethyl)quinazolin-4-yl)piperidine-3-carbonitrile], the IC50 was 21 nM.

On to `COCCN1CC2(CCN(c3nc(OC[C@@]45CCCN4C[C@H](F)C5)nc4c(F)c(-c5ccc(F)c6sc(N)nc56)c(C(F)(F)F)cc34)CC2)OC1=O` [Example 94, 8-(7-(2-amino-7-fluorobenzo[d]thiazol-4-yl)-8-fluoro-2-(((2R,7aS)-2-fluorotetrahydro-1H-pyrrolizin-7a(5H)-yl)methoxy)-6-(trifluoromethyl)quinazolin-4-yl)-3-(2-methoxyethyl)-1-oxa-3,8-diazaspiro[4.5]decan-2-one], for which the IC50 came out at 2.5 nM.

Take `Nc1nc2c(-c3c(C(F)(F)F)cc4c(N5CC[C@@H](CO)C5)nc(OC[C@@]56CCCN5C[C@H](F)C6)nc4c3F)ccc(F)c2s1` [Example 65, ((3R)-1-(7-(2-amino-7-fluorobenzo[d]thiazol-4-yl)-8-fluoro-2-(((2R,7aS)-2-fluorotetrahydro-1H-pyrrolizin-7a(5H)-yl)methoxy)-6-(trifluoromethyl)quinazolin-4-yl)pyrrolidin-3-yl)methanol]: the IC50 came out at 4.1 nM.

`Nc1cc(Cl)c(C(F)(F)F)c(-c2ncc3c(NC45CC(C4)C5)nc(OC[C@@]45CCCN4C[C@H](F)C5)nc3c2F)c1` [Example 112, 7-(5-amino-3-chloro-2-(trifluoromethyl)phenyl)-N-(bicyclo [1.1.1]pentan-1-yl)-8-fluoro-2-(((2R,7aS)-2-fluorotetrahydro-1H-pyrrolizin-7a(5H)-yl)methoxy) pyrido[4,3-d]pyrimidin-4-amine] yielded an IC50 of 19 nM. Compared with the last compound, the IC50 is about 4.6-fold higher.

Take `COC1CC1Nc1nc(OC[C@@]23CCCN2C[C@H](F)C3)nc2c(F)c(-c3ccc(F)c4sc(N)nc34)c(C(F)(F)F)cc12` (stereo partly drawn) [Example 6, 7-fluoro-4-(8-fluoro-2-(((2R,7aS)-2-fluorotetrahydro-1H-pyrrolizin-7a(5H)-yl)methoxy)-4-((2-methoxycyclopropyl)amino)-6-(trifluoromethyl)quinazolin-7-yl)benzo[d]thiazol-2-amine]: the IC50 stood at 54 nM.

Compound `N#CCC1CCCN(c2nc(OC[C@@]34CCCN3C[C@H](F)C4)nc3c(F)c(-c4cc(N)cc(Cl)c4C(F)(F)F)ncc23)C1` (stereo partly drawn) [Example 126, 2-(1-(7-(5-amino-3-chloro-2-(trifluoromethyl)phenyl)-8-fluoro-2-(((2R,7aS)-2-fluorotetrahydro-1H-pyrrolizin-7a(5H)-yl)methoxy)pyrido[4,3-d]pyrimidin-4-yl)piperidin-3-yl)acetonitrile] had an IC50 of 6.3 nM.

For `N#CCC1CCN(c2nc(OC[C@@]34CCCN3C[C@H](F)C4)nc3c(F)c(-c4cc(N)cc(Cl)c4C(F)(F)F)ncc23)CC1` [Example 125, 2-(1-(7-(5-amino-3-chloro-2-(trifluoromethyl)phenyl)-8-fluoro-2-(((2R,7aS)-2-fluorotetrahydro-1H-pyrrolizin-7a(5H)-yl)methoxy)pyrido[4,3-d]pyrimidin-4-yl)piperidin-4-yl)acetonitrile], the IC50 came out at 81 nM.

For `CS(=O)(=O)C1CN(c2nc(OC[C@@]34CCCN3C[C@H](F)C4)nc3c(F)c(-c4ccc(F)c5sc(N)nc45)c(C(F)(F)F)cc23)C1` [Example 44, 7-fluoro-4-(8-fluoro-2-(((2R,7aS)-2-fluorotetrahydro-1H-pyrrolizin-7a(5H)-yl)methoxy)-4-(3-(methylsulfonyl)azetidin-1-yl)-6-(trifluoromethyl)quinazolin-7-yl)benzo[d]thiazol-2-amine], the IC50 amounted to 14 nM.

In the case of `COC1CN(c2nc(OC[C@@]34CCCN3C[C@H](F)C4)nc3c(F)c(-c4ccc(F)c5sc(N)nc45)c(C(F)(F)F)cc23)C1` [Example 45, 7-fluoro-4-(8-fluoro-2-(((2R,7aS)-2-fluorotetrahydro-1H-pyrrolizin-7a(5H)-yl)methoxy)-4-(3-methoxyazetidin-1-yl)-6-(trifluoromethyl)quinazolin-7-yl)benzo[d]thiazol-2-amine], the IC50 turned out to be 15 nM.

`Nc1nc2c(-c3c(C(F)(F)F)cc4c(NC5CC6(CCC6)C5)nc(OC[C@@]56CCCN5C[C@H](F)C6)nc4c3F)ccc(F)c2s1` [Example 22, 7-fluoro-4-(8-fluoro-2-(((2R,7aS)-2-fluorotetrahydro-1H-pyrrolizin-7a(5H)-yl)methoxy)-4-(spiro[3.3]heptan-2-ylamino)-6-(trifluoromethyl)quinazolin-7-yl)benzo[d]thiazol-2-amine] registered a half-maximal inhibitory concentration (IC50) of 367 nM.

Take `N#C[C@H]1C[C@@H](Nc2nc(OC[C@@]34CCCN3C[C@H](F)C4)nc3c(F)c(-c4ccc(F)c5sc(N)nc45)c(C(F)(F)F)cc23)C1` [Example 18, (cis)-3-((7-(2-amino-7-fluorobenzo[d]thiazol-4-yl)-8-fluoro-2-(((2R,7aS)-2-fluorotetrahydro-1H-pyrrolizin-7a(5H)-yl)methoxy)-6-(trifluoromethyl)quinazolin-4-yl)amino)cyclobutane-1-carbonitrile]: the IC50 is 13 nM. This IC50 lies about 28-fold lower than the previous one.

Regarding `N#CCCC1CN(c2nc(OC[C@@]34CCCN3C[C@H](F)C4)nc3c(F)c(-c4ccc(F)c5sc(N)nc45)c(C(F)(F)F)cc23)C1` [Example 41, 3-(1-(7-(2-amino-7-fluorobenzo[d]thiazol-4-yl)-8-fluoro-2-(((2R,7aS)-2-fluorotetrahydro-1H-pyrrolizin-7a(5H)-yl)methoxy)-6-(trifluoromethyl)quinazolin-4-yl)azetidin-3-yl)propanenitrile], the IC50 was found to be 12 nM.

`C[C@]1(O)CCCN(c2nc(OC[C@@]34CCCN3C[C@H](F)C4)nc3c(F)c(-c4cc(N)cc(Cl)c4C(F)(F)F)ncc23)C1` [Example 129, (S)-1-(7-(5-amino-3-chloro-2-(trifluoromethyl)phenyl)-8-fluoro-2-(((2R,7aS)-2-fluorotetrahydro-1H-pyrrolizin-7a(5H)-yl)methoxy)pyrido[4,3-d]pyrimidin-4-yl)-3-methylpiperidin-3-ol] yielded an IC50 of 15 nM.

Compound `Nc1nc2c(-c3c(C(F)(F)F)cc4c(N5CC(F)(F)C5)nc(OC[C@@]56CCCN5C[C@H](F)C6)nc4c3F)ccc(F)c2s1` [Example 38, 4-(4-(3,3-difluoroazetidin-1-yl)-8-fluoro-2-(((2R,7aS)-2-fluorotetrahydro-1H-pyrrolizin-7a(5H)-yl)methoxy)-6-(trifluoromethyl)quinazolin-7-yl)-7-fluorobenzo[d]thiazol-2-amine] returned a half-inhibitory concentration (IC50) of 25 nM.

With `CC1CC1Nc1nc(OC[C@@]23CCCN2C[C@H](F)C3)nc2c(F)c(-c3ccc(F)c4sc(N)nc34)c(C(F)(F)F)cc12` (stereo partly drawn) [Example 3, 7-fluoro-4-(8-fluoro-2-(((2R,7aS)-2-fluorotetrahydro-1H-pyrrolizin-7a(5H)-yl)methoxy)-4-((2-methylcyclopropyl)amino)-6-(trifluoromethyl)quinazolin-7-yl)benzo[d]thiazol-2-amine], the IC50 is 6.2 nM.

Compound `Nc1nc2c(-c3c(C(F)(F)F)cc4c(N5CCC6(CC5)CNC(=O)CO6)nc(OC[C@@]56CCCN5C[C@H](F)C6)nc4c3F)ccc(F)c2s1` [Example 98, 9-(7-(2-amino-7-fluorobenzo[d]thiazol-4-yl)-8-fluoro-2-(((2R,7aS)-2-fluorotetrahydro-1H-pyrrolizin-7a(5H)-yl)methoxy)-6-(trifluoromethyl)quinazolin-4-yl)-1-oxa-4,9-diazaspiro[5.5]undecan-3-one] gave a half-maximal inhibitory concentration (IC50) of 51 nM. This IC50 lies about 8.2-fold higher than the previous one.

(Values after patent US20250101028A1, “HETEROCYCLIC COMPOUNDS, COMPOSITIONS THEREOF, AND METHODS OF TREATMENT THEREWITH” (BeiGene, Ltd., priority 2022, published 2025).)
